The subject of one experiment is sexed semen samples. Description: Cellular function of sexed semen samples (mitochondrial membrane potential, motility). It counts as cell-based. The settings on record: sexed semen samples treated.
Experiment [1] concerns sperm cells. Briefly: Pre-freeze and post-freeze motile cell quantification (CASA). The settings on record: 5 μM, n=10 sires, compared to SOP. It counts as cell-based, bovine. The protocol: Sex Skewed Sample Collection and Processing: The sample was run to collect between 300 and 400 mL of sex skewed sample, the composition of which is approximately 17% TRIS A (Part 1) buffer, 80% sheath fluid, and 2% cell sample. The sample was collected in 50 mL conical tubes containing 5 mLs of TRIS A (Part 1), and each tube was filled to a max volume of 30 mL before being replaced. After the requisite total volume was collected, sexed sperm was centrifuged at room temperature at 2400×g for 10 minutes. The supernatant was aspirated and discarded to reach a 1 mL pellet volume. 144 μL of TRIS A (Part 1)/GTLS mixture containing 40 μM clofilium or no clofilium (control) was added to each pellet after resuspension. The tubes were then placed in beakers filled with 150 mL of room temperature water, to prevent cold shock, and were then transferred to a 4° C. cold room. […] The concentration of progressively motile cells was determined using the Hamilton Thorne IVOS II with […] […] After which 20 μLs of sample is added to 20 μLs of QC diluent, gently vortexed for 5 seconds, and read on the CASA fluorescent settings described above. The remainder of the straw volume is spread on a blood agar plate and left at 37° C. for 24 hours before bacterial colonies are counted. […]

For experiment [2], the system named is sperm cells. Description: Staining sperm cells with Hoechst dye before sexing. Type of experiment: cell-based. The conditions noted are these: present during staining with Hoechst dye. The protocol: (§1) Sample Preparation for Sperm Sexing: A stained sample was prepared at room temperature that contained 200 M/mL sperm cells in 0.06 mg/mL Hoechst 33342 diluted to final volume in Stain TALP with Magnetic Beads with (+clofilium) or without (control) such that clofilium would be at a final concentration of 5 μM in the final stained sample volume. The sample was then incubated in a 37° C. water bath for 45 minutes. After 45 minutes Red Stain TALP was added to the stained sample in a 2:1 v/v ratio. The sample+Red TALP was then thoroughly mixed using inversion, filtered using tube top 20 μm Partec filters (Partec#04-0042-2315), and aliquoted into round bottom 5 mL tubes.
Sexing Cytometer Metrics: The stained, filtered sample was then run on proprietary sexing cytometers. The sample throughput was adjusted to 23,000 cells/sec and the detection and kill lasers were focused. To confirm proper laser focus, kill count assessments were performed before collecting sex skewed sample. A successful kill count has a population that is ≥75% dead and ≥95% sliced with at least 200 cells being counted. If an instrument could not achieve the above metrics, the instrument was not used to collect sex skewed semen. After a successful kill count, a gate was placed to collect the X chromosome cells, which is the cell population with the brighter Hoechst 33342 fluorescence as measured with a 355 nm wavelength excitation laser. Cytometer performance metrics were collected 15 minutes after instrument set up, and 15 minutes after the placement of the last sample collection tube, including the height of the Y-peak, the height of the X-peak, the height of the trough from the histogram of events per emitted fluorescent intensity, gated %, and dead %.

Experiment [3] has as its system sperm cells. Description: Sexing cytometer metrics: eligible cells, skew. It counts as cell-based, bovine. The conditions noted are these: 5 μM, n=10 sires. The protocol: as §1
Sexing Cytometer Metrics: The stained, filtered sample was then run on proprietary sexing cytometers. The sample throughput was adjusted to 23,000 cells/sec and the detection and kill lasers were focused. To confirm proper laser focus, kill count assessments were performed before collecting sex skewed sample. A successful kill count has a population that is ≥75% dead and ≥95% sliced with at least 200 cells being counted. […] After a successful kill count, a gate was placed to collect the X chromosome cells, which is the cell population with the brighter Hoechst 33342 fluorescence as measured with a 355 nm wavelength excitation laser. […]

Experiment [4] relates to slaughterhouse oocytes fertilized with sexed semen. Briefly: In vitro fertilization (IVF) with sexed semen: embryo cleavage and blastocyst formation. It counts as cell-based, bovine. The text has this:
IVF Testable Unit Generation Design: This study utilizes sires from two breeds, Holstein and Jersey. The study design includes one ejaculate collection from 10 unique sires to generate sexed semen units in a split batch design with clofilium and a paired control.
Final breed tally of the collections were 7 Holsteins and 3 Jersey sires. Ejaculates selected for use in this trial were processed following standard production procedures outlined in detail below. Insemination doses, freeze canes, and all associated documentation were blind labeled during the incoming quality check. This was to prevent technician bias on quality control assessments after freeze-thaw as well as during the IVF outcome quantitation assessments.
After processing, the sexed semen was packaged and frozen during a regularly scheduled production freeze following standard operating procedures (SOPs). Within one week of unit generation, the outgoing quality control measurements were performed by a trained research technician. Post-thaw motile concentration and the presence/absence of bacterial contamination were completed. Insemination doses had to pass standard production outgoing quality control parameters to be utilized for the IVF trial.
Each facility received the two treatment groups for each individual ejaculate. The two treatments from each split ejaculate were used concurrently to fertilize oocytes from the same pooled batch of slaughterhouse oocytes.
Trained IVF technicians performed the outlined fertilizations. Day 2 cleavage rate, Day 7 and 8 blastocyst rates will be recorded, as well as polyspermy post-fertilization.
Oocyte prep: Four well fertilization plates are prepared by filling all 4 wells with 400 μL of BO-IVF (MOFA Verona, Wis.) and equilibrated in a 37° C. 5% CO2 for at least 1 hour. […]
Semen prep: Three insemination straws per treatment group are thawed at 37° C. for 45 seconds. […] A 5 μL sample aliquot is added to 95 μLs 4% NaCl to immobilize the cells, and cell concentration is quantified using a hemocytometer. Cells with visible membrane damage are not counted towards cell density calculations. […]

Counter-ions that a name gives are not always drawn.

The source of these data is patent publication US20230337658A1, “COMPOSITIONS AND METHODS FOR ENHANCING SPERM CELL QUALITY” (ABS Global, Inc., priority 2022, published 2023).

As for `CCCCCCC[N+](CC)(CC)CCCCc1ccc(Cl)cc1` [clofilium tosylate, N-[4-(4-chlorophenyl)butyl]-N,N-diethylheptan-1-aminium], in the experiment with sexed semen samples, the “cellular function, as measured by mitochondrial membrane potential” value is “increased cellular function” and the “cellular function, as measured by motility” value is given as “increased cellular function”. For the same compound, the “number of straws obtained from a single sample catch tube (pre-freeze motile cell quantification)” value in the experiment on sperm cells [1] (post instrument processing, FIG. 5) is on record as “improvement”. In addition, the “motile cells (in millions) per insemination dose” value in the experiment with sperm cells [1] (post-freeze, FIGS. 6A, 6B) was “more motile cells”. In the experiment on sperm cells [2], the “eligibility (number of cells eligible for sexing)” value is “increase eligibility”; the “resolution (separation of X- and Y-chromosome cell peaks in a histogram)” value is listed as “increase resolution”; the sex skew entry was “increase”; the “time required to achieve staining saturation” value is recorded as “reduce the time”. For the same compound, in the experiment on sperm cells [3], the “Skew (percentage of X-chromosome bearing sperm cells)” value was “remains unaffected”. Further, the “percentage of eligible cells (live, sexed X chromosome bearing cells)” value in the experiment with sperm cells [3] (compared to SOP at start and end of the collection process, FIG. 4) is on record as “increased eligible percent”. The “percentage of normalized cleaved embryos at day 2” value in experiment [4] (5 μM throughout the sexing process, N=2 sires, normalized to the control process, FIG. 3A) was “improvement”. The “percentage of day 7 blastocysts” value in experiment [4] (5 μM throughout the sexing process, N=2 sires, normalized to the control process, FIG. 3B) is recorded as “improvement”. Further, in experiment [4] (included in the sexing process), the “fertility of semen, as assessed by embryo cleavage and blastocyst formation post-IVF” value is “improves fertility”.
